Experimental data taken from patent US12414567B2, “Wear resistant antimicrobial compositions and methods of use” (ECOLAB USA INC., priority 2010, dated 2025).

Test system: MatTek EpiOcular ocular tissues
Experiment: MatTek EpiOcular model ocular irritation (MTT cell viability, Example 16)
Assay type: cell-based
Conditions: positive control, 10%, all exposure times (5-60 minutes)
Experimental: Each of these compositions was diluted at a rate of 2 oz/gal before they were tested using the Epioccular model.
The MatTek EpiOcular™ model can be used to assess the potential ocular irritation of test articles by determining the cell viability of the tissue after exposure to the test articles. The objective of this study was to assess the ocular irritation potential of 1.56% (w/w) 12837.36.1. Control and test article exposure times were 5 minutes, 10 minutes, 20 minutes, 40 minutes and 60 minutes. After the exposures MTT was performed and data was normalized to the negative control, sterile ultrapure water (water purified and deionized˜18.2 MΩ-cm). The positive control, 10% benzalkonium chloride (BC), was effective, reducing cell viability to <10% of control for all exposure times (Tables 2a-e) and FIG. 1). The relative cell viability of ocular tissues treated with 1.56% (w/w) 12837.36.1 was 29.7%, 26.8%, 15.3%, 8.9% and 8.0% after 5, 10, 20, 40 and 60 minute exposures, respectively (Tables 2a-e and FIG. 1), resulting in an ET50 of 1.54 minutes and an estimated in vivo Draize score of 77.2 (Table 1).
The MatTek EipOcular™ model can be used to assess the potential ocular irritation of test articles by determining the cell viability of the tissue after exposure to the test articles. The objective of this study was to assess the ocular irritation potential of 1.56% (w/w) 12837.39.1. […]

Q: With benzalkonium chloride as the substance, how does the cell viability read?
A: < 10 % of control
